In experiment [1] the target is T1, AHR (Mus musculus, UniProt P30561).
T1 sequence (P30561 1-848 P471L/N533S/M589L): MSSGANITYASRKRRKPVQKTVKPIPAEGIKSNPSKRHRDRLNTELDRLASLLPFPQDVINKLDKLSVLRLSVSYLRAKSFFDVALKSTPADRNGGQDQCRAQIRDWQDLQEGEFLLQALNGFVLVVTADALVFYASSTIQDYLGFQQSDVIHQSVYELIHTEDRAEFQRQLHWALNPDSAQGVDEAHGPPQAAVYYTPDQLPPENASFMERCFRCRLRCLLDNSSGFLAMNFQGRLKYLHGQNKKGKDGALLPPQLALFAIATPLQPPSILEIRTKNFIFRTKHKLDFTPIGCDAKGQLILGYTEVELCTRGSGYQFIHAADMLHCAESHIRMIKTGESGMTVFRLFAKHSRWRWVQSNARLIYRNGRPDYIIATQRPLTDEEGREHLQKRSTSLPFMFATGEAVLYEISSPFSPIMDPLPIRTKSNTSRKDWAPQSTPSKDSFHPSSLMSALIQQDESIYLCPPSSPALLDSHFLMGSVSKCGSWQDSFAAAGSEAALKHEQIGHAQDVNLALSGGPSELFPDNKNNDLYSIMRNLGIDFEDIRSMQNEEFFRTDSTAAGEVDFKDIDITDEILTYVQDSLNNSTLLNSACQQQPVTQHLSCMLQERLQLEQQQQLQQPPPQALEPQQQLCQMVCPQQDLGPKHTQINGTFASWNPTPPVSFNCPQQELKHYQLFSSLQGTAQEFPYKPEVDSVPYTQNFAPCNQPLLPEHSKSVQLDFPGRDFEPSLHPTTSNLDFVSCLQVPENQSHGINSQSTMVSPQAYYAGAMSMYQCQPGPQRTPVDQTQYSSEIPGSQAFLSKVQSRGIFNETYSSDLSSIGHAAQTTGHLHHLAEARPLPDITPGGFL
Kind of experiment: In vitro assay 3: antagonism in mouse cell line (AHR transactivation, firefly luciferase reporter, kynurenic acid prestimulated). The experiment is classed as cell-based. Summed up:
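Luminescence from an AHR-dependent DRE-luciferase reporter, stably integrated in mouse cells, quantifies blockade of kynurenic acid-driven activation. Unstimulated cells mark maximal inhibition; normalization uses both control types, and multiply tested compounds carry mean or median values.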
A general note: Reporter assays use an easily measured gene product as a stand-in for the process of interest.

The target in experiment [2] is T2, AHR (Homo sapiens, UniProt P35869).
T2 construct: U87 MG glioblastoma cells (ATCC #HTB-14) endogenously expressing AHR; endogenous in cells; host or cells: U87 MG glioblastoma cells (ATCC #HTB-14)
T2 sequence (P35869 11-848): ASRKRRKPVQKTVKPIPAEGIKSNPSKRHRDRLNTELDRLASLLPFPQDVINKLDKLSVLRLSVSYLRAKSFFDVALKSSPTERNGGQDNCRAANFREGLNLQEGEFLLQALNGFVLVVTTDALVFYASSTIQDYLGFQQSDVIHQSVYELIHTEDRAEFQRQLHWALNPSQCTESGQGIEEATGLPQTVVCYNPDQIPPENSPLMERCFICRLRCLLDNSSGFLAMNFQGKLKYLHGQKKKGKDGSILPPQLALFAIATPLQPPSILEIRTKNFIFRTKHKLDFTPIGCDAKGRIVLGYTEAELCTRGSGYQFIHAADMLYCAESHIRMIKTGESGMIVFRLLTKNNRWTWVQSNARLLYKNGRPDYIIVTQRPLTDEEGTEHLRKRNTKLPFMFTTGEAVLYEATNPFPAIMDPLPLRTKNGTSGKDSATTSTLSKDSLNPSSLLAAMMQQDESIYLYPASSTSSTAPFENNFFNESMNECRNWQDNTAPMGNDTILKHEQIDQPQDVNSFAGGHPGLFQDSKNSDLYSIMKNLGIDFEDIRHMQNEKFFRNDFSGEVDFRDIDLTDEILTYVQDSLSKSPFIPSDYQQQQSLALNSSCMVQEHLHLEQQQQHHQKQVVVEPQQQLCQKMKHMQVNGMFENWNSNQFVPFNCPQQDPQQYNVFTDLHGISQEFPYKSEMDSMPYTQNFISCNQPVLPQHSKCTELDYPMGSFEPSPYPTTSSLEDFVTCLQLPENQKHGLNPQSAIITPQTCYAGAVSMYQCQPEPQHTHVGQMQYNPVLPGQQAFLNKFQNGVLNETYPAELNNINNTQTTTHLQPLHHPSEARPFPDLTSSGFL
Nature of the experiment: In vitro assay 1: antagonism in human cell line (AHR transactivation, firefly luciferase reporter, kynurenic acid prestimulated). Particulars: AHR Antagonism Human IC50 [M]. The experiment is classed as cell-based. Summed up:
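Antagonism measured as loss of kynurenic acid-driven firefly luciferase from DRE reporter in stably transfected U87 MG cells; constitutive Renilla signal monitors cytotoxicity. Positive/negative control normalization, staurosporine 5 μM with 150 μM kynurenic acid as inhibition control; replicates given as mean or median.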

Setting [3] is: mouse Hepa 1c1c7 cells, 200 μM kynurenic acid, 20 hours, read-out: AHR Antagonism Mouse IC50.
[4] abbreviates: Hepa 1c1c7 cells, 200 μM kynurenic acid, 20 hours, firefly luciferase reporter, read-out: AHR Antagonism Mouse IC50.

Read-outs that look alike come from different tables or passages of the source.

Regarding `COc1cccc(-c2nc3c4ccc(F)cc4nc(N[C@@H]4CCNC4=O)n3n2)c1` [Example 152, (3R)-3-{[8-fluoro-2-(3-methoxyphenyl)[1,2,4]triazolo[1,5-c]quinazolin-5-yl]amino}pyrrolidin-2-one], the IC50 (in general, the midpoint of a concentration-inhibition curve) at AHR [1] (setting [3]) amounted to 353 nM; at AHR [2], 5.28e-08 M.
For the molecule `O=C1NCCCC[C@H]1Nc1nc2ccccc2c2nc(-c3cnsc3)nn12` [Example 645, (3R)-3-{[2-(1,2-thiazol-4-yl)[1,2,4]triazolo[1,5-c]quinazolin-5-yl]amino}azepan-2-one], the figures for the 50% inhibitory concentration (IC50) at AHR [1] (setting [3]) and on AHR [2] were 6.64 nM and 1.66e-08 M, respectively.
For the molecule `CC[C@@H](Nc1nc2ccccc2c2nc(-c3ccccc3OC(F)F)nn12)C(N)=O` [Example 476, (2R)-2-({2-[2-(difluoromethoxy)phenyl][1,2,4]triazolo[1,5-c]quinazolin-5-yl}amino)butanamide], the IC50 worked out at 0.554 nM at AHR [1] (read-out: AHR Antagonism Mouse IC50, mouse Hepa 1c1c7 cells, 200 μM kynurenic acid, 20 hours) and 3.93e-09 M on AHR [2].
For `O=C1NCC[C@H]1Nc1nc2ccccc2c2nc(-c3cccc(OC(F)(F)F)c3)nn12` [Example 310, (3R)-3-({2-[3-(trifluoromethoxy)phenyl][1,2,4]triazolo[1,5-c]quinazolin-5-yl}amino)pyrrolidin-2-one], the 50% inhibitory concentration (IC50) was found to be 60.7 nM at AHR [1] (setting [3]) and 9.98e-08 M against AHR [2].
Consider `CCn1cc(-c2nc3c4cccc(SC)c4nc(N[C@@H]4CCCCNC4=O)n3n2)c(C)n1` [Example 772, (3R)-3-{[2-(1-ethyl-3-methyl-1H-pyrazol-4-yl)-7-(methylsulfanyl)[1,2,4]triazolo[1,5-c]quinazolin-5-yl]amino}azepan-2-one], for which the IC50 on AHR [1] (setting [3]) is 51.3 nM; at AHR [2], 3.61e-09 M.
Turning to `Cn1nccc1-c1nc2c3cccc(C(F)(F)F)c3nc(N[C@@H]3CCCCNC3=O)n2n1` [Example 808, (3R)-3-{[2-(1-methyl-1H-pyrazol-5-yl)-7-(trifluoromethyl)[1,2,4]triazolo[1,5-c]quinazolin-5-yl]amino}azepan-2-one], the IC50 at AHR [1] (setting [4]) was 1.16 nM; at AHR [2] (firefly luciferase reporter) it was 8.12e-10 M.
With `CC[C@H](Nc1nc2c(C(F)(F)F)cccc2c2nc(-c3ccnn3C)nn12)C(N)=O` [Example 805, (2S)-2-{[2-(1-methyl-1H-pyrazol-5-yl)-7-(trifluoromethyl)[1,2,4]triazolo[1,5-c]quinazolin-5-yl]amino}butanamide], the IC50 on AHR [1] (setting [4]) was found to be 70.4 nM; at AHR [2] (firefly luciferase reporter), 1.9e-07 M.
In the same order, the values of `CC(C)n1cc(-c2nc3c4cccc(C5CC5)c4nc(N[C@@H]4CNCCNC4=O)n3n2)cn1` [Example 955, (6R)-6-({7-cyclopropyl-2-[1-(propan-2-yl)-1H-pyrazol-4-yl][1,2,4]triazolo[1,5-c]quinazolin-5-yl}amino)-1,4-diazepan-5-one] are 452 nM and 5.57e-08 M.
For `O=C1NCCCC[C@H]1Nc1nc2ccccc2c2nc(-c3ccncc3)nn12` [Example 126, (3R)-3-{[2-(pyridin-4-yl)[1,2,4]triazolo[1,5-c]quinazolin-5-yl]amino}azepan-2-one], the figures for the IC50 on AHR [1] (setting [3]) and at AHR [2] were 14.8 nM and 1.3e-08 M, respectively.
As to `Cn1cc(-c2nc3c4cccc(Br)c4nc(N[C@@H]4CSCCNC4=O)n3n2)cn1` [Example 837, (6S)-6-{[7-bromo-2-(1-methyl-1H-pyrazol-4-yl)[1,2,4]triazolo[1,5-c]quinazolin-5-yl]amino}-1,4-thiazepan-5-one], the half-maximal inhibitory concentration (IC50) on AHR [1] (setting [4]) was found to be 1.81 nM; at AHR [2] (firefly luciferase reporter), 7.6e-10 M.
With `CC(C)n1cc(-c2nc3c4cccc(Br)c4nc(N[C@H]4CNCCNC4=O)n3n2)cn1` [Example 984, (6S)-6-({7-bromo-2-[1-(propan-2-yl)-1H-pyrazol-4-yl][1,2,4]triazolo[1,5-c]quinazolin-5-yl}amino)-1,4-diazepan-5-one], the IC50 was found to be 41.2 nM on AHR [1] (setting [4]) and 3.84e-08 M against AHR [2] (firefly luciferase reporter).
In the case of `COc1cccc(-c2nc3c4ccccc4nc(NC4CCN(C)C4=O)n3n2)c1` (single isomer, unassigned) [Example 123, 3-{[2-(3-methoxyphenyl)[1,2,4]triazolo[1,5-c]quinazolin-5-yl]amino}-1-methylpyrrolidin-2-one], the results for the 50% inhibitory concentration (IC50) on AHR [1] (setting [3]) and at AHR [2] were 1870 nM and 3.65e-07 M, respectively.
On to `CC[C@H](Nc1nc2ccccc2c2nc(-c3cccc(C#N)c3)nn12)C(N)=O` [Example 442, (2S)-2-{[2-(3-cyanophenyl)[1,2,4]triazolo[1,5-c]quinazolin-5-yl]amino}butanamide], for which the values for the IC50 on AHR [1] (setting [3]) and on AHR [2] were 264 nM and 4.89e-06 M, respectively.
On to `COc1ccc(-c2nc3c4cccc(Br)c4nc(N[C@H](C)C(=O)NCCCN(C)C)n3n2)cc1` [Example 809, N^2-[7-bromo-2-(4-methoxyphenyl)[1,2,4]triazolo[1,5-c]quinazolin-5-yl]-N-[3-(dimethylamino)propyl]-D-alaninamide], for which the concentration for half-maximal inhibition (IC50) on AHR [1] (setting [4]) was found to be 9.05 nM; against AHR [2] (firefly luciferase reporter), 1.82e-08 M.
As to `COc1ccc(-c2nc3c4ccc(C(F)(F)F)cc4nc(N[C@@H]4CCCCNC4=O)n3n2)cc1` [Example 548, (3R)-3-{[2-(4-methoxyphenyl)-8-(trifluoromethyl)[1,2,4]triazolo[1,5-c]quinazolin-5-yl]amino}azepan-2-one], the IC50 on AHR [1] (setting [3]) amounted to 2400 nM; against AHR [2], 9.46e-07 M.
In the same order, the values of `COc1ccc(-c2nc3c4cccc(SC)c4nc(N[C@@H]4CCCCNC4=O)n3n2)cc1` [Example 766, (3R)-3-{[2-(4-methoxyphenyl)-7-(methylsulfanyl)[1,2,4]triazolo[1,5-c]quinazolin-5-yl]amino}azepan-2-one] are 47 nM and 1.64e-08 M.
With `O=C1NCCCC[C@H]1Nc1nc2c(C(F)(F)F)cccc2c2nc(-c3cnn(C4CCC4)c3)nn12` [Example 741, (3R)-3-{[2-(1-cyclobutyl-1H-pyrazol-4-yl)-7-(trifluoromethyl)[1,2,4]triazolo[1,5-c]quinazolin-5-yl]amino}azepan-2-one], the IC50 at AHR [1] (setting [3]) was found to be 1.41 nM; against AHR [2], 7.02e-10 M.
For the molecule `COCc1noc(-c2nc3c4ccccc4nc(N[C@@H]4CCCCNC4=O)n3n2)n1` [Example 303, (3R)-3-({2-[3-(Methoxymethyl)-1,2,4-oxadiazol-5-yl][1,2,4]triazolo[1,5-c]quinazolin-5-yl}amino)azepan-2-one], the values for the 50% inhibitory concentration (IC50) on AHR [1] (setting [3]) and against AHR [2] were 293 nM and 4.52e-07 M, respectively.
Regarding `Cc1cncc(-c2nc3c4ccccc4nc(N[C@@H]4CCCCNC4=O)n3n2)c1` [Example 636, (3R)-3-{[2-(5-methylpyridin-3-yl)[1,2,4]triazolo[1,5-c]quinazolin-5-yl]amino}azepan-2-one], the 50% inhibitory concentration (IC50) stood at 5.98 nM at AHR [1] (setting [3]) and 2.32e-08 M against AHR [2].
Regarding `COc1ccc(-c2nc3c4cc(F)ccc4nc(N[C@@H]4CNCCNC4=O)n3n2)cc1` [Example 277, (6R)-6-{[9-fluoro-2-(4-methoxyphenyl)[1,2,4]triazolo[1,5-c]quinazolin-5-yl]amino}-1,4-diazepan-5-one], the IC50 was 15.1 nM on AHR [1] (setting [3]) and over 2e-05 M against AHR [2].

For the origin of these results see US20230113037A1 (Bayer Aktiengesellschaft, priority 2019, published 2023).
